Experiments:
[1] = system: recombinant glucuronoxylomannan (GXM)-O-acetylhydrolase, SEQ ID No. 31 (His-tagged short clone expressed in E. coli); assay: PNP-acetate plate assay, kinetics (Km), recombinant enzyme; format: biochemical, mixed unknown bacterial culture from sewage; conditions: pH 7.2, A405 kinetic reading, hyperbolic regression, read-out: Km for PNP-acetate (KPNPA)
Protocol: PNP-Carboxyl Ester Assay: This assay determines specificity of enzymatic activity for five different PNP-fatty acid esters: PNP-acetate (2 carbon), PNP-propionate (3 carbon), PNP-butyrate (4 carbon), PNP-laurate (12 carbon), and PNP-palmitate (16 carbon). The assay was set up in a 96-well plate and read at 405 n m on a BIO-TEK Ceres 900 plate reader. Each reaction consisted of: 200 μl PBS buffer, pH 7.2; 50 μl PNP-ester solution, 0.77 mM; and 50 μl of enzyme (containing various levels of enzyme) added just prior to reading at 405 nm. Non-enzymic hydrolysis was measured in a solution that consisted of 200 μl PBS buffer, pH 7.2; 50 μl PNP-ester solution, 0.77 mM; and 50 μl PBS, pH 7.2, the buffer replacing the enzyme. […] This assay was read within 30 seconds in a single point manner as the enzyme works rapidly on this substrate.
PNP-Acetate Assay: This assay was routinely used to determine enzymatic activity in samples of recombinant enzyme at the various steps in its expression and purification as described above, but with the PNP-acetate substrate only. This reaction was measured at pH=6.2 to 8.2. […]
Kinetics: Kinetics of the enzyme were investigated through use of the PNP-acetate plate assay and the competition assay described above. The plates were read on the BIO-TEK Ceres 900 plate reader at 405 nm with a kinetic protocol that took readings every 20 seconds for 3 minutes. […]

[2] = system: native (wild-type) glucuronoxylomannan (GXM)-O-acetylhydrolase purified from mixed unknown bacterial culture; assay: PNP-acetate plate assay, kinetics (Km), native enzyme; format: biochemical, mixed unknown bacterial culture from sewage; conditions: pH 7.2, A405 kinetic reading, hyperbolic regression, read-out: Km for PNP-acetate (KPNPA)
Description: Purification, LysC Degradation and Amino Acid Sequencing of Wild-Type Enzyme: The native GXM O-acetylhydrolase was purified from a mixed unknown bacterial culture that was collected from sewage. The purification was achieved by the following steps: cholate extraction, ammonium sulfate precipitation, molecular sieve chromatography, and ion exchange on a mono Q column followed by a mono S column.
PNP-Carboxyl Ester Assay: This assay determines specificity of enzymatic activity for five different PNP-fatty acid esters: PNP-acetate (2 carbon), PNP-propionate (3 carbon), PNP-butyrate (4 carbon), PNP-laurate (12 carbon), and PNP-palmitate (16 carbon). The assay was set up in a 96-well plate and read at 405 n m on a BIO-TEK Ceres 900 plate reader. Each reaction consisted of: 200 μl PBS buffer, pH 7.2; 50 μl PNP-ester solution, 0.77 mM; and 50 μl of enzyme (containing various levels of enzyme) added just prior to reading at 405 nm. Non-enzymic hydrolysis was measured in a solution that consisted of 200 μl PBS buffer, pH 7.2; 50 μl PNP-ester solution, 0.77 mM; and 50 μl PBS, pH 7.2, the buffer replacing the enzyme. Standard curves were obtained by measurement of the A405 of solutions of known amounts of para-nitrophenol. This assay was read within 30 seconds in a single point manner as the enzyme works rapidly on this substrate. […]

Q: What does the source list for CC(=O)Oc1ccc([N+](=O)[O-])cc1 [PNP-acetate]?
A: Km [1]: 1340 µM; Km [2]: 1260 µM

— patent US6146868A, “Glucuronoxylomannan (GXM)-O-acetylhydrolase of cryptococcus neoformans and uses thereof” (Research Development Foundation, priority 1999, dated 2000)
